Literature values in patent US11452751B2, “Medication dispensing system” (priority 2015, dated 2022).

Assays:
prostate cell line, PC-3 = conditions: Ruiz et al. 1999
[1] = target: T1, androgen receptor in the prostate gland (Homo sapiens, UniProt P10275)
T1 construct: host or cells: prostate gland
T1 sequence (P10275 1-920): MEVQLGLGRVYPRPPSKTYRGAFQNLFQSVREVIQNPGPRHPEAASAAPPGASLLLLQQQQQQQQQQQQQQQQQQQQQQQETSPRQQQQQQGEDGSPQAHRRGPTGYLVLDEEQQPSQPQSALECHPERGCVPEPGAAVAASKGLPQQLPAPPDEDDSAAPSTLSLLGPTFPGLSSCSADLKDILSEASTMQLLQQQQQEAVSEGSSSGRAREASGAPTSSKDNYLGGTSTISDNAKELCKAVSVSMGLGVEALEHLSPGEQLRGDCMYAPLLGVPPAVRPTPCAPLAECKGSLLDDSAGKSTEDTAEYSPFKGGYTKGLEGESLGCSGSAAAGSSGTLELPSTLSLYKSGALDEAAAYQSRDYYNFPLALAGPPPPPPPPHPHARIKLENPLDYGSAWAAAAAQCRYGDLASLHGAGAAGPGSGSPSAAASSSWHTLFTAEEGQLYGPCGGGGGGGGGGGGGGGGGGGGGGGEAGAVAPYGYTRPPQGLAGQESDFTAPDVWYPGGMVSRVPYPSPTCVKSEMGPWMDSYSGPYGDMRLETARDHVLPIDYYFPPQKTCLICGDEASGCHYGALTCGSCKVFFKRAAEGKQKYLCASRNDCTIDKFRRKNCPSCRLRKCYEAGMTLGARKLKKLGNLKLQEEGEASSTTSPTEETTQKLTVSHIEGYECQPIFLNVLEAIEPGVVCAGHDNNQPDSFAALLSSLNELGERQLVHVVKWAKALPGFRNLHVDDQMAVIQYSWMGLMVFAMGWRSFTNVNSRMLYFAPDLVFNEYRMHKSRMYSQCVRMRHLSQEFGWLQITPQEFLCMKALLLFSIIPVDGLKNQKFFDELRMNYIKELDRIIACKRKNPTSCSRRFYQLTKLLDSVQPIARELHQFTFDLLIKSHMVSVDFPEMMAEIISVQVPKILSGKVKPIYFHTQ

[2] = system: estrogen receptor-positive and estrogen receptor-negative breast cancer cell lines; conditions: inducing apoptosis in a concentration-dependent manner
[3] = system: nontumorigenic mammary cells
[4] = not given; remark: listed apart in the source
CB1 receptor = CB1 receptor (Homo sapiens, UniProt P21554)
Sequence of CB1 receptor (P21554 whole entry): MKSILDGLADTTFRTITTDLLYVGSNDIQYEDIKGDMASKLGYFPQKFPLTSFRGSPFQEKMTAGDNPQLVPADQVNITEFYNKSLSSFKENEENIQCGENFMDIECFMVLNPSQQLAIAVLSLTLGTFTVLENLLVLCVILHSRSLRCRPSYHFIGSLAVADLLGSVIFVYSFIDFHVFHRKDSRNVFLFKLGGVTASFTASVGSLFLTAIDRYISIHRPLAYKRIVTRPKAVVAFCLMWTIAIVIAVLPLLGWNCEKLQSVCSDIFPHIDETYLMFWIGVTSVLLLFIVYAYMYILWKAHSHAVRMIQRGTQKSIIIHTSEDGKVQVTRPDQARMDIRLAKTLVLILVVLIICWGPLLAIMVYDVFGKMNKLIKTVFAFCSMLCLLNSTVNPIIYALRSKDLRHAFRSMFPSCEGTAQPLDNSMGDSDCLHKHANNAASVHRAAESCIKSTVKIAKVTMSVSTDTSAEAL

In the case of `CCCCCc1cc(O)c2c(c1)OC(C)(C)[C@@H]1CCC(C)=C[C@@H]21` [THC, Tetrahydrocannabinol], the pain sensitivity (cold-pressor test after administration, dronabinol oral capsules 10 mg or 20 mg) is listed as “decreased pain sensitivity”, the duration of effects (compared with smoked marijuana) is listed as “lasted longer than smoked marijuana” and the “time after administration at which pain reduction effects were felt” value (on the average, cold-pressor test) is listed as 180 min. The apoptosis (prostate cell line, PC-3) was “causes apoptosis” and the “specific binding of dihydroxytestosterone to the androgen receptor” value [1] was “inhibits specific binding”.
For `C=C(C)[C@@H]1CCC(C)=C[C@H]1c1c(O)cc(CCCCC)cc1O` [CBD, Cannabidiol], the “affinity to cannabinoid receptors” value (cannabinoid receptors) is listed as “low affinity”, the “survival of breast cancer cell lines” value [2] is listed as “inhibited the survival” and the “effect on nontumorigenic mammary cells” value [3] is listed as “little effect”.
For vitamin E, the “reduction in breast cancer incidence” value ([4]; pre-menopausal women with a family history of breast cancer, highest quantity of vitamin E consumed) is given as 43% and the “risk reduction of breast cancer” value ([4]; women without a family history of breast cancer) is given as 16%.
For `CCCc1cc(O)c2c(c1)OC(C)(C)[C@@H]1CCC(C)=C[C@@H]21` [THCV, Tetrahydrocannabivarin], the “mode of action at CB1 receptor” value (CB1 receptor) is given as “CB1 receptor antagonist”.
